What was measured:
[1] = tested on: bronchial epithelial cells; experiment: Effect of calcium content on bronchial epithelial cells in KSFM plus A83-01 and Y-27632 (morphology, TEER); format: cell-based, human
Description: Effects of culture media calcium content on cell behavior were assessed for epithelial cells cultured in KSFM plus A83-01 and Y-27632. Human bronchial epithelial cells were grown KSFM (with 90 μM CaCl2) plus A83-01 and Y-27632. These cells dispersed throughout the culture vessel (FIG. 28, left panel), and few cells formed intercellular connections, even when they were in close proximity to each other. […] Cells in the center of the patches tended to pile up, and boundaries between individual cells generally were not discernable. In certain instances, abnormal elongations formed between clusters.
In a further investigation, effects of culture media calcium content on intercellular junctions was assessed for bronchial epithelial cells cultured in KSFM plus A83-01 and Y-27632. Intercellular junctions were assessed according to paracellular flow of ions as measured by trans-epithelium electric resistance (TEER). […] Bronchial epithelial cells were plated on porous membrane support ([…], Corning, 354474) and maintained for 7 days when the membrane was covered with culture medium (submerged phase, grayed box in FIG. 29, top panel). On day 8, the medium was removed from the apical side of the membrane, and the cells were exposed to air to induce further differentiation. […]

[2] = tested on: human foreskin keratinocytes (HFK); experiment: Differentiation of keratinocytes at high CaCl2 in KSFM+A+Y (ZO-1 staining, TEER, H&E); format: cell-based
Description: Specifically, late passage human foreskin keratinocytes (HFK) cultured in KSFM supplemented with 1 μM A83-01 and 5 μM Y-27632 (KSFM+A+Y) at low CaCl2 (90 μM) were allowed to reach confluence. The cells remained in the KSFM+A+Y conditions and the CaCl2 concentration was raised to 1.5 mM to induce differentiation.
Keratinocytes established increasing transmembrane electric resistance (TEER) over time in air-liquid-interface differentiation, in the presence of high concentration (1.5 mM) of CaCl2 in KSFM plus A 83-01 and Y-27632. Specifically, human foreskin keratinocytes (HFK) previously cultured in KSFM supplemented with 1 μM A83-01 and 5 μM Y-27632 (KSFM+A+Y) at low CaCl2 (90 μM) were plated on a porous membrane support ([…], Corning, 354474) and maintained for 14 days. The cells were covered by culture medium (KSFM+A+Y and 1.5 mM of CaCl2) for the first day (submerged phase, grayed box in FIG. 34) and exposed to air for the remaining days.
Keratinocytes formed an epidermal-like structure over time in air-liquid-interface differentiation, in the presence of high concentration (1.5 mM) of CaCl2 in KSFM plus A 83-01 and Y-27632. Specifically, human foreskin keratinocytes (HFK) previously cultured in KSFM supplemented with 1 μM A83-01 and 5 μM Y-27632 (KSFM+A+Y) at low CaCl2 (90 μM) were plated on a porous membrane support ([…], Corning, 354474) and maintained for 14 days. […]

[3] = tested on: human telomerase reverse transcriptase (hTERT) gene; experiment: hTERT expression by quantitative real-time PCR in prostate epithelial cells; format: cell-based; conditions: KSFM
Description: (§1) Total RNA was prepared using TRIzol® Plus RNA Purification Kit (Life Technologies, 12183-555) and PureLink® RNA Mini Kit (Life Technologies, 12183018A), following the manufacturer's instructions. One hundred nanogram total RNA was used for the determination of human telomerase reverse transcriptase (hTERT) expression using the TaqMan® RNA-to-CT™ 1-Step Kit (Life Technologies, 4392938), following the protocol provided by the supplier. hTERT primers and Taqman® probe used were as follows: forward primer, 5′-[…]-3′ (SEQ ID NO:7), reverse primer, 5′-[…]-3′ (SEQ ID NO:8) and Taqman® probe, 5′-[…]-3′ (SEQ ID NO:9).
(§2) In this example, hTERT expression in epithelial cells was assessed in the presence of an ALK5 inhibitor, a Rho kinase inhibitor (i.e., a Rho-associated protein kinase inhibitor), or both. Expression of hTERT gene was examined by quantitative real-time PCR in bronchial epithelial cells and prostate epithelial cells. The cells were treated with an ALK5 inhibitor, A83-01, or a Rho kinase inhibitor (i.e., a Rho-associated protein kinase inhibitor), Y-27632, or both inhibitors, at different passages in KSFM.
As shown in FIG. 6A and FIG. 6B, prostate epithelial cells at early passage (p2) expressed low level of hTERT, which quickly diminished at passage 3 and became non-detectible by passage 5.

[4] = tested on: prostate epithelial cells; experiment: Plating efficiency of prostate epithelial cells in KSFM; format: cell-based, human; conditions: regular tissue culture surface
Description: (§3) Epithelial cells (prostate epithelial cells and bronchial epithelial cells) were plated at 3,000-10,000 viable cells/cm^2 in tissue culture vessels, using culture medium as indicated in Examples 2 to 5 and FIGS. 1 to 17, and incubated at 37° C. with 5% CO2. The medium was changed every 2 or 3 days. Cells were sub-cultured using standard trypsinization method when they were about 70-90% confluent. Total cell number was determined using the Countess II Automated Cell Counter (Life Technologies, AMQAX1000) following manufacturer's instructions.
(§4) In this example, epithelial cell plating efficiency, i.e., number of cells that efficiently attach to the cell culture surfaces, continue to divide and grow into colonies, was examined under various conditions.
(§5) However, those few cells that did attach continued to proliferate.
Many prostate epithelial cells attached to regular tissue culture surface in the presence of both A83-01 and Y-27632 at day 2 after plating.

[5] = tested on: late passage prostate epithelial cells; experiment: Proliferation of late passage prostate epithelial cells in KSFM plus compounds, 5 days; format: cell-based, human
Description: Stocks of certain chemicals used in the study were prepared by dissolving in DMSO to 10 mM. The chemical stocks were added to culture media to desired final concentrations, as described in Examples 2 to 5 and shown in FIGS. 1 to 17, from the time when cell culture was initiated.
In a control experiment with no added compound, there was minimum increase of cell numbers after 5 days.
In control experiment with no inhibitor added to KSFM, there was minimum increase of cell numbers after 5 days. […] As described above, these include Rho kinase inhibitors (i.e., Rho-associated protein kinase inhibitors) such as Y-27632, SR 3677, GSK 429286 and Thiazovivin; PAK1 inhibitor IPA-3; and myosin II inhibitor (i.e., non-muscle myosin II (NM II) inhibitor) Blebbistatin.

[6] = tested on: human telomerase reverse transcriptase (hTERT) gene; experiment: hTERT expression by quantitative real-time PCR in bronchial epithelial cells; format: cell-based; conditions: KSFM
Description: as §1, §2

[7] = tested on: bronchial epithelial cells; experiment: Plating efficiency of bronchial epithelial cells in KSFM; format: cell-based, human; conditions: regular tissue culture surface
Description: as §3, §4, §5
Many bronchial epithelial cells attached to regular tissue culture surface in the presence of both A83-01 and Y-27632 at day 2 after plating.

[8] = tested on: prostate epithelial cells; experiment: Growth (population doublings) of prostate epithelial cells in culture; format: cell-based, human
Description: as §3
(§6) A formula used for the calculation of population doublings (PD) is presented in Equation A: n=3.32*(log Y−log I)+X Equation A where n=the final PD number at end of a given subculture, Y=the cell yield at the time of harvesting, I=the cell number used as inoculum to begin that subculture, and X=the doubling level of the inoculum used to initiate the subculture being quantitated.
(§7) Prostate and bronchial epithelial cells were grown in KSFM in the presence of Rho kinase inhibitor (i.e., Rho-associated protein kinase inhibitor) Y-27632.
To examine the effects of additional in vitro and/or ex vivo growth conditions, prostate epithelial cells were grown in KSFM or PrEGM in the presence of media alone, ALK5 inhibitor A83-01, Rho kinase inhibitor (i.e., Rho-associated protein kinase inhibitor) Y-27632, or both (with or without collagen).

[9] = tested on: bronchial epithelial cells; experiment: Growth (population doublings) of bronchial epithelial cells in culture; format: cell-based, human
Description: as §3, §6, §7
Similar to the experiment above, bronchial epithelial cells were grown in KSFM in the presence of media alone, ALK5 inhibitor A83-01, Rho kinase inhibitor (i.e., Rho-associated protein kinase inhibitor) Y-27632, or both (with or without collagen).

keratinocytes = experiment: Expansion of keratinocytes in KSFM supplemented with combinations of components; format: cell-based, human; conditions: increasing doses, KSFM with EGF, isoproterenol, A 83-01 and rHA
Description: In another experiment, keratinocytes were cultured in KSFM supplemented with various combinations of components.
In another experiment, keratinocytes were cultured in the presence of increasing doses of ROCK inhibitor (Y-27632) or Myosin II ATPase inhibitor (blebbistatin), in KSFM supplemented with EGF (0.5 ng/mL), isoproterenol (3 μM), A 83-01 (1 μM), and recombinant human serum albumin (expressed in rice; 100 μg/mL).
In another experiment, keratinocytes were cultured in the presence of increasing doses (between 10 nM to 2 μM) of retinoic acid receptors (RAR) antagonist BMS-453 or retinoic acid receptors (RAR) antagonist BMS-195614, in KSFM supplemented with EGF (0.5 ng/mL), isoproterenol (3 μM), A 83-01 (1 μM), and recombinant human serum albumin (expressed in rice; 100 μg/mL).

[10] = tested on: human foreskin keratinocytes (HFK) and human bronchial epithelial cells (HBEC); experiment: Cell growth with increasing isoproterenol in KSFM plus A83-01 and Y-27632, six days; format: cell-based; conditions: in KSFM plus 1 μM A83-01 and 5 μM Y-27632, six days
Description: In a further investigation, epithelial cell growth was assessed in the presence of a beta-adrenergic agonist (i.e., a beta-adrenergic receptor agonist). Human foreskin keratinocytes (HFK) and human bronchial epithelial cells (HBEC) were cultured in KSFM plus 1 μM A83-01 and 5 μM Y-27632, supplemented with increasing concentrations of isoproterenol (a beta-adrenergic receptor agonist that increases cytosolic cAMP levels). Cell numbers were counted after six days to calculate cell growth relative to control.

[11] = KSFM, compound used alone, late passage

For `[Ca+2].[Cl-].[Cl-]` [CaCl2], the “cell behavior (morphology)” value ([1]; 1 mM CaCl2 in KSFM plus A83-01 and Y-27632) was “aggregate into tight clusters”, the “trans-epithelium electric resistance (TEER)” value ([1]; high concentration (1 mM) in KSFM plus A 83-01 and Y-27632) was “increasing TEER” and the “epidermal-like structure formation (H&E)” value ([2]; 1.5 mM CaCl2 in KSFM+A+Y, air-liquid-interface, day 14) was “differentiated into multi-layer structures”. For the same compound, the “tight junction formation (ZO-1 staining)” value ([2]; CaCl2 raised to 1.5 mM in KSFM+A+Y) was “Tight junction formation was observed”.

`C[C@@H](N)[C@H]1CC[C@H](C(=O)Nc2ccncc2)CC1.Cl.Cl` [Y-27632, (R)-(+)-trans-4-(1-Aminoethyl)-N-(4-Pyridyl)cyclohexanecarboxamide dihydrochloride] was tested, and the hTERT expression ([3]; early passage (p2)) was “induced”, the hTERT expression ([3]; late passage (p5)) was “non-detectible” and the “plating efficiency in the presence of A83-01” value [4] was “ameliorated the low plating efficiency”. For the same compound, the “cell proliferation after 5 days” value ([5]; KSFM plus compound alone (FIG. 17)) was “slight increase of cell proliferation”, the “total cell number after 5 days” value ([5]; KSFM plus individual compound alone, 5 μM, 1 μM and 0.2 μM (FIG. 16)) was “slight increase of total cell numbers” and the “cell proliferation after 5 days” value ([5]; used together with A83-01 in KSFM, 5 μM, 1 μM and 0.2 μM (FIG. 17)) was “synergistically increased”. For the same compound, the hTERT expression ([6]; early passage (p3)) was “slightly induced”, the hTERT expression ([6]; late passage (p6)) was “non-detectible” and the “plating efficiency in the presence of A83-01” value [7] was “ameliorated the low plating efficiency”. The “population doubling (PD) reached before cells entered senescence” value ([8]; KSFM) was greater than 20, the proliferation [8, 11] was “did not promote the proliferation” and the total population doublings ([8]; added to KSFM) was “slightly increased the total population doublings”. For the same compound, the proliferation [9, 11] was “did not promote the proliferation”, the total population doublings ([9]; added to KSFM) was “slightly increased the total population doublings” and the cell growth rate (keratinocytes) was “No significant increase of cell growth rate”.

With `CC(C)NCC(O)c1ccc(O)c(O)c1` (centres unmarked) [isoproterenol] the “cell growth relative to control” value [10] was “further increased epithelial cells growth”.

Source: US11060715B2, “Ex vivo proliferation of epithelial cells” (PROPAGENIX INC., priority 2015, dated 2021)
